{
  "source": "paper PMC7993387",
  "about": "“The preclinical inhibitor GS441524 in combination with GC376 efficaciously inhibited the proliferation of SARS-CoV-2 in the mouse respiratory tract” (Emerging Microbes & Infections, 2021)",
  "key": {"[1]": {"assay": "Single-dose pharmacokinetics in SD rats", "assay_type": "in vivo", "settings": "for AUC(0-t) / Tmax / Vd/F / CL/F / Cmax / half-life / MRT last / MRT inf: Sprague-Dawley, rat, plasma, im; for MRT last: read-out: MRT0−t; for MRT inf: read-out: MRT0−∞", "method": "(§1) Healthy SPF BALB/c mice (7-8 weeks) and SD rats (4-6 weeks) were used in a single-dose PK study. […] The blood was collected at 0, 0.083, 0.25, 0.5, 1, 2, 4, 8, 12 and 24 h and placed in a precooled polypropylene centrifuge tube containing 3.0 µl of 40% EDTAK2. Then, the whole blood was centrifuged at 7800 g/min for 10 min at 4°C. Plasma was collected and stored in a freezer at −80°C. Plasma drug concentration was analyzed using LC-MS/MS. Pharmacokinetic parameters were calculated using WinNonlin software (version 6.4), and a non-atrioventricular model was used for data fitting. The data were analyzed using Microsoft Excel 2016 and GraphPad Prism 7.0."}, "[2]": {"assay": "Cell viability (Cell Titer-Glo) in Vero E6 cells", "assay_type": "cell-based", "settings": "African green monkey", "method": "Cell viability was determined using the Cell Titer-Glo kit (Promega, Madison, WI, USA) following the manufacturer’s instructions. Briefly, Vero E6 cells were seeded in 96-well plates with opaque walls. […] Cell Titer-Glo reagent was added to each well, and luminescence was measured using a GloMax 96 Microplate Luminometer (Promega, Madison, WI, USA)."}, "SARS-CoV-2 (HRB26M)": {"system": "SARS-CoV-2 (HRB26M)", "assay": "microbe, parasite or virus in culture", "assay_type": "cell-based", "settings": "Severe acute respiratory syndrome coronavirus 2, Vero C1008, 24 h, combination molar ratio 1:1, read-out: EC50 (50% inhibitory concentration)"}, "[3]": {"assay": "Single-dose pharmacokinetics in BALB/c mice", "assay_type": "in vivo", "settings": "for half-life / AUC(0-t) / CL/F / Cmax / Tmax / Vd/F / MRT last / MRT inf: BALB/c, mouse, plasma; for MRT last: read-out: MRT0−t; for MRT inf: read-out: MRT0−∞", "method": "as §1"}, "[4]": {"settings": "alone (GC376 111 mg/kg; GS441524 67 mg/kg)"}, "[5]": {"settings": "combined (GC376 55.5 + GS441524 33.5 mg/kg)"}, "[6]": {"settings": "im, BALB/c mice, alone (GC376 111 mg/kg; GS441524 67 mg/kg)"}, "[7]": {"settings": "im, BALB/c mice, i.m., alone (GC376 111 mg/kg; GS441524 67 mg/kg)"}, "[8]": {"settings": "im, BALB/c mice, i.m., combined (GC376 55.5 + GS441524 33.5 mg/kg)"}, "[9]": {"settings": "33.5 mg/kg, i.m., combined (GC376 55.5 + GS441524 33.5 mg/kg)"}, "[10]": {"settings": "im, 33.5 mg/kg, BALB/c mice, i.m., combined (GC376 55.5 + GS441524 33.5 mg/kg)"}},
  "data": [
    {"smiles": "CC(C)CC(NC(=O)OCc1ccccc1)C(=O)NC(CC1CCNC1=O)C(O)S(=O)(=O)O", "note": "(centres unmarked) [GC376]", "values": [
      {"measurement": "AUC(0-t)", "setting": "[1]", "result": "42.4 ± 6.44", "unit": "µg·h/mL"},
      {"measurement": "Tmax", "setting": "[1]", "result": "1.4 ± 0.49", "unit": "h"},
      {"measurement": "Vd/F", "setting": "[1]", "result": "5.17 ± 1.87", "unit": "L/kg"},
      {"measurement": "AUC(0-t)", "setting": "[1]; [4]", "result": "92.1 ± 9.99", "unit": "µg·h/mL"},
      {"measurement": "CL/F", "setting": "[1]; [4]", "result": 1.21, "unit": "L/h/kg"},
      {"measurement": "Cmax", "setting": "[1]; [4]", "result": "12.6 ± 1.9", "unit": "µg/mL"},
      {"measurement": "Tmax", "setting": "[1]; [4]", "result": "1.3 ± 0.6", "unit": "h"},
      {"measurement": "Vd/F", "setting": "[1]; [4]", "result": "6.75 ± 1.04", "unit": "L/kg"},
      {"measurement": "half-life", "setting": "[1]; [4]", "result": "3.87 ± 0.49", "unit": "h"},
      {"measurement": "MRT last", "setting": "[1]; [4]", "result": "5.83 ± 0.74", "unit": "h"},
      {"measurement": "MRT inf", "setting": "[1]; [4]", "result": "6.06 ± 0.64", "unit": "h"},
      {"measurement": "CL/F", "setting": "[1]; [5]", "result": 1.31, "unit": "L/h/kg"},
      {"measurement": "Cmax", "setting": "[1]; [5]", "result": "11.8 ± 1.63", "unit": "µg/mL"},
      {"measurement": "half-life", "setting": "[1]; [5]", "result": "2.75 ± 0.91", "unit": "h"},
      {"measurement": "MRT last", "setting": "[1]; [5]", "result": "2.97 ± 0.41", "unit": "h"},
      {"measurement": "MRT inf", "setting": "[1]; [5]", "result": "3.32 ± 0.57", "unit": "h"},
      {"measurement": "Cmax of GC376, fold lower than GS441524", "setting": "[1]; i.m., alone", "result": "approximately 2.5 fold"},
      {"measurement": "clearance rate (CL/F) of GC376 relative to that of GS441524", "setting": "[1]; i.m., alone", "result": "approximately 2.9 fold"},
      {"measurement": "CC50 at 24 h", "setting": "[2]", "result": "> 250", "unit": "µM"},
      {"measurement": "EC50", "setting": "SARS-CoV-2 (HRB26M)", "result": "0.881 ± 0.109", "unit": "µM"},
      {"measurement": "Cmax of GC376 relative to that of GS441524", "setting": "[3]; BALB/c mice, i.m., alone", "result": "approximately 1.2 fold"},
      {"measurement": "clearance rate (CL/F) of GC376 relative to that of GS441524", "setting": "[3]; BALB/c mice, i.m., alone", "result": "approximately 3.1 fold"},
      {"measurement": "half-life", "setting": "[3]; (GC376 55.5 + GS441524 33.5 mg/kg)", "result": "0.81 ± 0.22", "unit": "h"},
      {"measurement": "AUC(0-t)", "setting": "[3]; [6]", "result": "55.3 ± 11.3", "unit": "µg·h/mL"},
      {"measurement": "CL/F", "setting": "[3]; [6]", "result": 1.99, "unit": "L/h/kg"},
      {"measurement": "Cmax", "setting": "[3]; [6]", "result": "46.7 ± 10.7", "unit": "µg/mL"},
      {"measurement": "Tmax", "setting": "[3]; [6]", "result": "0.22 ± 0.07", "unit": "h"},
      {"measurement": "Vd/F", "setting": "[3]; [6]", "result": "2.87 ± 0.432", "unit": "L/kg"},
      {"measurement": "half-life", "setting": "[3]; [6]", "result": "1.12 ± 0.53", "unit": "h"},
      {"measurement": "MRT last", "setting": "[3]; [7]", "result": "1.05 ± 0.12", "unit": "h"},
      {"measurement": "MRT inf", "setting": "[3]; [7]", "result": "1.38 ± 0.59", "unit": "h"},
      {"measurement": "AUC(0-t)", "setting": "[3]; [8]", "result": "27.8 ± 4.41", "unit": "µg·h/mL"},
      {"measurement": "CL/F", "setting": "[3]; [8]", "result": 2.03, "unit": "L/h/kg"},
      {"measurement": "Cmax", "setting": "[3]; [8]", "result": "30.04 ± 0.22", "unit": "µg/mL"},
      {"measurement": "Tmax", "setting": "[3]; [8]", "result": 0.25, "unit": "h"},
      {"measurement": "Vd/F", "setting": "[3]; [8]", "result": "2.34 ± 0.617", "unit": "L/kg"},
      {"measurement": "MRT last", "setting": "[3]; [8]", "result": "0.79 ± 0.09", "unit": "h"},
      {"measurement": "MRT inf", "setting": "[3]; [8]", "result": "0.88 ± 0.12", "unit": "h"}
    ]},
    {"smiles": "N#C[C@@]1(c2ccc3c(N)ncnn23)O[C@H](CO)[C@@H](O)[C@H]1O", "note": "[GS441524]", "values": [
      {"measurement": "AUC(0-t)", "setting": "[1]; 33.5 mg/kg", "result": "88.3 ± 26.8", "unit": "µg·h/mL"},
      {"measurement": "Tmax", "setting": "[1]; 33.5 mg/kg", "result": "3.4 ± 1.2", "unit": "h"},
      {"measurement": "Vd/F", "setting": "[1]; 33.5 mg/kg", "result": "2.71 ± 1.25", "unit": "L/kg"},
      {"measurement": "CL/F", "setting": "[1]; [9]", "result": 0.396, "unit": "L/h/kg"},
      {"measurement": "Cmax", "setting": "[1]; [9]", "result": "10.5 ± 1.85", "unit": "µg/mL"},
      {"measurement": "half-life", "setting": "[1]; [9]", "result": "5.13 ± 2.56", "unit": "h"},
      {"measurement": "MRT last", "setting": "[1]; [9]", "result": "6.03 ± 1.37", "unit": "h"},
      {"measurement": "MRT inf", "setting": "[1]; [9]", "result": "7.57 ± 2.93", "unit": "h"},
      {"measurement": "AUC(0-t)", "setting": "[1]; [4]", "result": "183 ± 64.4", "unit": "µg·h/mL"},
      {"measurement": "CL/F", "setting": "[1]; [4]", "result": 0.423, "unit": "L/h/kg"},
      {"measurement": "Cmax", "setting": "[1]; [4]", "result": "31 ± 8.4", "unit": "µg/mL"},
      {"measurement": "Tmax", "setting": "[1]; [4]", "result": "2 ± 1.1", "unit": "h"},
      {"measurement": "Vd/F", "setting": "[1]; [4]", "result": "2.25 ± 0.946", "unit": "L/kg"},
      {"measurement": "half-life", "setting": "[1]; [4]", "result": "3.8 ± 1.17", "unit": "h"},
      {"measurement": "MRT last", "setting": "[1]; [4]", "result": "4.5 ± 1.11", "unit": "h"},
      {"measurement": "MRT inf", "setting": "[1]; [4]", "result": "4.78 ± 1.49", "unit": "h"},
      {"measurement": "AUC0−t of GS441524, fold higher than GC376", "setting": "[1]; i.m., alone", "result": "approximately 2.0 fold"},
      {"measurement": "CC50 at 24 h", "setting": "[2]", "result": "> 250", "unit": "µM"},
      {"measurement": "EC50", "setting": "SARS-CoV-2 (HRB26M)", "result": "5.05 ± 2.12", "unit": "µM"},
      {"measurement": "AUC0−t of GS441524 relative to that of GC376", "setting": "[3]; BALB/c mice, i.m., alone", "result": "approximately 1.9 fold"},
      {"measurement": "AUC(0-t)", "setting": "[3]; [10]", "result": "49 ± 11.7", "unit": "µg·h/mL"},
      {"measurement": "CL/F", "setting": "[3]; [10]", "result": 0.708, "unit": "L/h/kg"},
      {"measurement": "Cmax", "setting": "[3]; [10]", "result": "16 ± 2.2", "unit": "µg/mL"},
      {"measurement": "Tmax", "setting": "[3]; [10]", "result": "0.55 ± 0.24", "unit": "h"},
      {"measurement": "Vd/F", "setting": "[3]; [10]", "result": "1.68 ± 0.282", "unit": "L/kg"},
      {"measurement": "half-life", "setting": "[3]; [10]", "result": "1.67 ± 0.24", "unit": "h"},
      {"measurement": "MRT last", "setting": "[3]; [10]", "result": "2.37 ± 0.73", "unit": "h"},
      {"measurement": "MRT inf", "setting": "[3]; [10]", "result": "2.48 ± 0.71", "unit": "h"},
      {"measurement": "AUC(0-t)", "setting": "[3]; [6]", "result": "107 ± 16.8", "unit": "µg·h/mL"},
      {"measurement": "CL/F", "setting": "[3]; [6]", "result": 0.639, "unit": "L/h/kg"},
      {"measurement": "Cmax", "setting": "[3]; [6]", "result": "39.6 ± 2.93", "unit": "µg/mL"},
      {"measurement": "Tmax", "setting": "[3]; [6]", "result": "0.8 ± 0.24", "unit": "h"},
      {"measurement": "Vd/F", "setting": "[3]; [6]", "result": "1.37 ± 0.129", "unit": "L/kg"},
      {"measurement": "half-life", "setting": "[3]; [6]", "result": "1.51 ± 0.16", "unit": "h"},
      {"measurement": "MRT last", "setting": "[3]; [7]", "result": "2.07 ± 0.42", "unit": "h"},
      {"measurement": "MRT inf", "setting": "[3]; [7]", "result": "2.15 ± 0.42", "unit": "h"}
    ]}
  ]
}
